Experimental data taken from publication PMC10299128, “The Parallel Structure–Activity Relationship Screening of Three Compounds Identifies the Common Agonist Pharmacophore of Pyrrolidine Bis-Cyclic Guanidine Melanocortin-3 Receptor (MC3R) Small-Molecule Ligands” (International Journal of Molecular Sciences, 2023).
Where two headings read alike, the source gives them in different places.

Key:
[1] = biological target: mMC4R (Mus musculus, UniProt P56450); assay: AlphaScreen cAMP agonist assay, HEK293 cells stably expressing mMC4R
Chain of mMC4R (P56450 whole entry): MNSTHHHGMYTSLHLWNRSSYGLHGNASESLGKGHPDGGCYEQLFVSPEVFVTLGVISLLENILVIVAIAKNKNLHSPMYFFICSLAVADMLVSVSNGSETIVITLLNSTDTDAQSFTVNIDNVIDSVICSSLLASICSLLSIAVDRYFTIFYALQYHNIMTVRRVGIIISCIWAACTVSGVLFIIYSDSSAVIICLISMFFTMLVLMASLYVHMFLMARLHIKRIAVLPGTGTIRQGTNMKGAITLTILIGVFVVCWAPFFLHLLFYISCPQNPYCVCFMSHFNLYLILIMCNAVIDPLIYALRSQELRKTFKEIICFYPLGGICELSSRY
Procedure: (§1) Pyrrolidine bis-cyclic guanidine compounds were assessed for biological activity using the AlphaScreen cAMP kit with HEK293 cells stably expressing the mMC1R, mMC3R, mMC4R, or mMC5R, as previously described [37, 38, 39]. […] Compounds were assayed for agonist activity in a 7-point dose–response curve (10^−3 to 10^−9 M). […] The purified compounds were dissolved in DMSO at a stock concentration of 10^−1 M and assayed using HEK293 cells stably expressing the mouse MC1R, MC3R, MC4R, and MC5R using the AlphaScreen cAMP bioassay (PerkinElmer, Waltham, MA, USA) according to the manufacturer’s instructions and as previously described [37, 38, 39].
(§2) Briefly, cells 70−90% confluent were dislodged with Versene (Gibco, Waltham, MA, USA) at 37 °C and 10,000 cells/well were plated in a 384-well plate (Optiplate, PerkinElmer, Waltham, MA, USA) with 10 μL of freshly prepared stimulation buffer (1× HBSS, 5 mM HEPES, 0.5 mM IBMX, 0.1% BSA, pH = 7.4) with 0.5 μg of anti-cAMP acceptor beads per well. The cells were stimulated with the addition of 5 μL of stimulation buffer containing compound or forskolin (10^−4 M) and incubated in the dark at room temperature for 2 h. Following stimulation, streptavidin donor beads (0.5 μg) and biotinylated cAMP (0.62 μmol) were added to the wells in a green light environment with 10 μL of lysis buffer (5 mM HEPES, 0.3% Tween-20, 0.1% BSA, pH = 7.4) and the plates were incubated in the dark at room temperature for an additional 2 h. Plates were read on a Enspire (PerkinElmer, Waltham, MA, USA) Alpha plate reader using a pre-normalized assay protocol (set by the manufacturer).

[2] = biological target: mMC1R (Mus musculus, UniProt Q01727); assay: AlphaScreen cAMP agonist assay, HEK293 cells stably expressing mMC1R; settings: for mMC1R partial agonist efficacy bin: sigmoidal curve, efficacy <90% of NDP-MSH
Chain of mMC1R (Q01727 whole entry): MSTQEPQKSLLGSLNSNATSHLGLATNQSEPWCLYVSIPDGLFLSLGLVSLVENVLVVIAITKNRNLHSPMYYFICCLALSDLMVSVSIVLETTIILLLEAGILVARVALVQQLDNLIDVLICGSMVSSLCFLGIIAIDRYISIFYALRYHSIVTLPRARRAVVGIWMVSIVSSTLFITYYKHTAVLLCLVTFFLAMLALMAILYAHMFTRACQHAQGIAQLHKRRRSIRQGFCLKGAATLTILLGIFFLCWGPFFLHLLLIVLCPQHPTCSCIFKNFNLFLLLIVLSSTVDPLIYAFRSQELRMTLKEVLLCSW
Procedure: as §1, §2

[3] = biological target: mMC3R (Mus musculus, UniProt P33033); assay: AlphaScreen cAMP agonist assay, HEK293 cells stably expressing mMC3R
Chain of mMC3R (P33033 whole entry): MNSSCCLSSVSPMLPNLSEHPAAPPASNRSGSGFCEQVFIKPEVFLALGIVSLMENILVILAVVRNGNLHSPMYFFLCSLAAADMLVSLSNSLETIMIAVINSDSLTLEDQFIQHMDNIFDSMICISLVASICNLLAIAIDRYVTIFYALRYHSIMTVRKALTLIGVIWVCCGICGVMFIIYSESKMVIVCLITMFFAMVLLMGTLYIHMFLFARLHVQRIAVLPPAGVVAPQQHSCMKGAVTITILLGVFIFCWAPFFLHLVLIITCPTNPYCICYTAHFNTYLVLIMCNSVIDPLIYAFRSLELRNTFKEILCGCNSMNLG

[4] = biological target: mMC5R (Mus musculus, UniProt P41149); assay: AlphaScreen cAMP agonist assay, HEK293 cells stably expressing mMC5R; settings: for mMC5R percent maximal stimulatory response (compared to NDP-MSH): at 1 mM, not enough stimulation to determine EC50; for mMC5R partial agonist efficacy bin: sigmoidal curve, efficacy <90% of NDP-MSH; for mMC5R agonist efficacy (in words): relative to NDP-MSH, full = >90% receptor activation
Chain of mMC5R (P41149 whole entry): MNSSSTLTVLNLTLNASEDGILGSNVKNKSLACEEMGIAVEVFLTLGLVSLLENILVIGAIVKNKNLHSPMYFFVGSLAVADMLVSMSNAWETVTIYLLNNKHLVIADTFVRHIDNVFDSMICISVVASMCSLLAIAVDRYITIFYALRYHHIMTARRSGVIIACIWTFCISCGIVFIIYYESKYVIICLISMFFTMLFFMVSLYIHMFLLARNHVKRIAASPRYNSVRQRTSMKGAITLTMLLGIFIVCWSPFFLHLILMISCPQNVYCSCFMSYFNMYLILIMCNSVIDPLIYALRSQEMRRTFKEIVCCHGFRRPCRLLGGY
Procedure: as §1, §2

[5] = at 1 mM, not enough stimulation to determine EC50

Row | SMILES | EC50 [1] [µM] | EC50 [2] [µM] | mMC1R partial agonist efficacy bin [2] | EC50 [3] [µM] | EC50 [4] [µM] | mMC4R percent maximal stimulatory response (compared to NDP-MSH) [1, 5] [% @ 1 mM] | mMC5R percent maximal stimulatory response (compared to NDP-MSH) [4] [% @ 1 mM] | mMC3R percent maximal stimulatory response (compared to NDP-MSH) [3, 5] [% @ 1 mM] | also measured
1 | CCN1C(=N)N([C@H](Cc2ccccc2)CN2CCC[C@H]2CN2C(=N)NC[C@H]2CC(C)C)C[C@H]1[C@H](C)O [Compound 2718.004] | > 1000 | 20.6 | A (A (20–50% receptor activation)) | > 1000 | > 1000 |  |  |  | 
2 | CC(C)C[C@@H]1CNC(=N)N1C[C@@H]1CCCN1C[C@@H](Cc1ccccc1)N1CCNC1=N [Compound 2718.006] |  |  |  | > 1000 |  | 20 | 30 |  | mMC1R percent maximal stimulatory response (compared to NDP-MSH) [2, 5]: 40% @ 1 mM
3 | CCN1C(=N)N([C@H](CC2CCCCC2)CN2CCC[C@H]2CN2C(=N)NC[C@H]2CC(C)C)C[C@H]1[C@H](C)O [Compound 2718.010] |  | 5 ± 1 | B (B (51–90% receptor activation)) | > 1000 | 45.5 | 20 |  |  | mMC5R partial agonist efficacy bin [4]: A (A (20–50% receptor activation))
4 | CC(C)C[C@@H]1CNC(=N)N1C[C@@H]1CCCN1C[C@@H](CC1CCCCC1)N1C[C@@H]([C@H](C)O)NC1=N [Compound 2718.011] | > 1000 | 15 | B (B (51–90% receptor activation)) | > 1000 |  |  |  |  | 
5 | CC(C)C[C@@H]1CNC(=N)N1C[C@@H]1CCCN1C[C@@H](CC1CCCCC1)N1CCNC1=N [Compound 2718.012] | > 1000 | 15 | B (B (51–90% receptor activation)) | > 1000 |  |  |  |  | 
6 | CCC[C@@H]1CN([C@H](CC2CCCCC2)CN2CCC[C@H]2CN2C(=N)NC[C@H]2C(C)C)C(=N)N1CC [Compound 2718.014] | > 1000 | 9 ± 3 | B (B (51–90% receptor activation)) |  |  |  | 50 | 20 | 
7 | CCC[C@@H]1CN([C@H](CC2CCCCC2)CN2CCC[C@H]2CN2C(=N)NC[C@H]2C(C)C)C(=N)N1 [Compound 2718.015] | > 1000 | 11 | B (B (51–90% receptor activation)) | > 1000 |  |  | 35 |  | 
8 | CC(C)[C@@H]1CNC(=N)N1C[C@@H]1CCCN1C[C@@H](CC1CCCCC1)N1CCNC1=N [Compound 2718.016] |  | 30 | B (B (51–90% receptor activation)) | > 1000 |  |  |  |  | 
9 | CC(O)C1CNC(=N)N1CC1CCC(C(C)(C)C)CC1 (stereo not shown) [Compound 2718.020] |  |  |  |  | 140 | 55 |  | 70 | mMC1R percent maximal stimulatory response (compared to NDP-MSH) [2, 5]: 70% @ 1 mM; mMC5R agonist efficacy (in words) [4]: fully activate
10 | CCCCC1CNC(=N)N1CC1CCC(C(C)(C)C)CC1 (stereo not shown) [Compound 2718.021] |  |  |  |  |  |  |  |  | mMC4R percent maximal stimulatory response (compared to NDP-MSH) ([1]; at 100 µM): 50% @ 100 µM; mMC1R percent maximal stimulatory response (compared to NDP-MSH) ([2]; at 100 µM): 80% @ 100 µM; mMC3R percent maximal stimulatory response (compared to NDP-MSH) ([3]; at 100 µM): 50% @ 100 µM; EC50 ([4]; read-out: mMC5R EC50, agonist, mean ± SEM, at least three independent experiments, >1,000,000 = no agonist activity up to 1 mM): 17 µM; fold decreased mMC5R agonist potency ([4]; relative to 2718.003): 14 fold; mMC5R agonist efficacy (in words) [4]: fully activate
11 | CC(C)C[C@@H]1CNC(=N)N1C[C@@H]1CCCN1CCN1C[C@@H]([C@H](C)O)N(CC2CCC(C(C)(C)C)CC2)C1=N (stereo partly shown) [Compound 2718.023] | 40 |  |  |  |  |  | 80 | 30 | mMC4R partial agonist efficacy bin ([1]; sigmoidal curve, efficacy <90% of NDP-MSH): A (A (20–50% receptor activation)); mMC1R percent maximal stimulatory response (compared to NDP-MSH) [2, 5]: 85% @ 1 mM
12 | CCC[C@@H]1CN(CCN2CCC[C@H]2CN2C(=N)NC[C@H]2C(C)C)C(=N)N1CC1CCC(C(C)(C)C)CC1 (stereo partly shown) [Compound 2718.028] |  | 10 | B (B (51–90% receptor activation)) |  | 19 | 35 |  | 35 | mMC5R partial agonist efficacy bin [4]: B (B (51–90% receptor activation))
13 | CC(C)C[C@@H]1CNC(=N)N1C[C@@H]1CCCN1C[C@@H](Cc1ccccc1)N1C[C@H]([C@@H](C)O)N(CC2CCC(C(C)(C)C)CC2)C1=N (stereo partly shown) [Compound 2718.030] |  | 4 ± 2 | B (B (51–90% receptor activation)) |  | 5 ± 2 | 60 |  | 50 | mMC5R partial agonist efficacy bin [4]: B (B (51–90% receptor activation))
